# From article PMC6066186 (Angewandte Chemie (International ed. in English), 2018)
# Legend:
# Mtb [1] = test: Growth inhibition; format: cell-based, Mycobacterium tuberculosis
# Mtb [2] = test: Combination with isoniazid, Mtb growth; format: cell-based, Mycobacterium tuberculosis; details: 250 nm, in the absence of TQZ
# [3] = system: ATP production through oxidative phosphorylation in membrane vesicles derived from mycobacteria; test: NADH-initiated ATP synthesis in mycobacterial membrane vesicles; format: biochemical; details: read-out: IC50, inhibition of ATP synthesis, NADH added
# Mtb [4] = details: cited from earlier work
# [5] = system: NADH oxidation in purified membranes; details: cited from earlier work
structure (smiles),measurement,setting,value
O=C(CSc1nc2cccc(F)c2c(=O)[nH]1)NC1CCCCC1 [CBR-3465],MIC,Mtb [1],0.16 µM
"NNC(=O)c1ccncc1 [INH, isoniazid]",effect on Mtb replication,Mtb [2],completely prevents replication
COc1nc2ccc(Br)cc2cc1[C@@H](c1ccccc1)[C@@](O)(CCN(C)C)c1cccc2ccccc12 [bedaquiline],IC50,[3],6.9 nM
C=C(C)[C@H]1Cc2c(ccc3c2O[C@@H]2COc4cc(OC)c(OC)cc4[C@@H]2C3=O)O1 [rotenone],effect on mycobacterial growth,Mtb [4],little effect
same,effect on NADH oxidation,[5],little effect
